In patent US20260373266A1, “PROTEIN DEGRADERS AND USES THEREOF” (KYMERA THERAPEUTICS, INC., priority 2022, published 2026):

Molecular target: T1, DCAF1 WD40 domain (residues 1077-1390) (Homo sapiens, UniProt Q9Y4B6)
T1 construct: DCAF1 WD40 domain (residues 1077-1390)
Test: DCAF1 binding assay by SPR (Biacore 8K+), DCAF1-3 KD
Settings: 25 °C, read-out: DCAF1-3 SPR (KD)

T1 sequence (Q9Y4B6 1077-1390): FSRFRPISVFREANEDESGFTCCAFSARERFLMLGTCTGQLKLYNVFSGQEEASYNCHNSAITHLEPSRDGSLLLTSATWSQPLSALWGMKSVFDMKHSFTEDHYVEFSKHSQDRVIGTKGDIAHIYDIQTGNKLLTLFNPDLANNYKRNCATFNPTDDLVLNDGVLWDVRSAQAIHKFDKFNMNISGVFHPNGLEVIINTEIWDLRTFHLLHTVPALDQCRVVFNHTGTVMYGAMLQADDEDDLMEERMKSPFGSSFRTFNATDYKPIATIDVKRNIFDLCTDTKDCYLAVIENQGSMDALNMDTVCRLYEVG

| SMILES | Kd |
| --- | --- |
| NC(=O)C[C@H](NC(=O)c1cn[nH]c1-c1ncccc1F)c1cccc(Cl)c1 [I-357] | > 200 µM |
| NC(=O)C[C@@]1(NC(=O)c2cn[nH]c2-c2ccccc2F)CCc2ccc(Cl)cc21 [I-361] | > 200 µM |
| COCCc1[nH]cc(C(=O)N[C@@H](CC(N)=O)c2cccc(Cl)c2)c1-c1ccccc1F [I-362] | > 200 µM |
| Fc1cccc(N2CC[C@@H]3CCCc4cnc(N5CCOCC5)cc4N[C@H]3C2)c1 [I-363] | > 200 µM |
| c1ccc2c(N3CCC[C@@H](n4ccc(N5CCOCC5)c5ccnc4-5)C3)nccc2c1 [I-367] | > 200 µM |
| Nc1nc(N[C@@H]2CCCN(c3cccc(F)c3)C2)cc(N2CCOCC2)n1 [I-368] | > 200 µM |
| Nc1cc(N2CCOCC2)cc(N[C@@H]2CCCN(c3cccc(F)c3)C2)n1 [I-369] | > 200 µM |
| Fc1cccc(N2CCC[C@@H](Nc3nccc(N4CCOCC4)n3)C2)c1 [I-370] | > 200 µM |
| OCCN(c1nc(N2CCOCC2)c[nH]1)[C@H]1CCCN(c2cccc(F)c2)C1 [I-372] | > 200 µM |
| Fc1cccc(N2CCC[C@@H](Nc3cc(N4CCNCC4)ncn3)C2)c1 [I-373] | > 200 µM |
| CN1CCN(c2cc(N[C@@H]3CCCN(c4cccc(F)c4)C3)ncn2)CC1 [I-374] | > 200 µM |
| CCN1CCN(c2cc(N[C@@H]3CCCN(c4cccc(F)c4)C3)ncn2)CC1 [I-375] | > 200 µM |
| CCCN1CCN(c2cc(N[C@@H]3CCCN(c4cccc(F)c4)C3)ncn2)CC1 [I-376] | > 200 µM |
| CCCCN1CCN(c2cc(N[C@@H]3CCCN(c4cccc(F)c4)C3)ncn2)CC1 [I-377] | > 200 µM |
| COCCN1CCN(c2cc(N[C@@H]3CCCN(c4cccc(F)c4)C3)ncn2)CC1 [I-378] | > 200 µM |
| Fc1cccc(N2CCC[C@@H](Nc3cc(N4CCCCC4)ncn3)C2)c1 [I-379] | > 200 µM |
| Fc1cccc(N2CCC[C@@H](Nc3cccc(N4CCOCC4)c3)C2)c1 [I-380] | > 200 µM |
| Fc1cccc(N2CCC[C@@H](Nc3cnnc(N4CCOCC4)c3)C2)c1 [I-381] | > 200 µM |
| Oc1cnc(N2CCOCC2)cc1N[C@@H]1CCCN(c2cccc(F)c2)C1 [I-382] | > 200 µM |
| Fc1cccc(N2C[C@H](Nc3cc(N4CCOCC4)ncn3)C3CC[C@H]2C3)c1 [I-383] | > 200 µM |
| CN(c1cc(N2CCOCC2)ncn1)[C@@H]1CCCN(c2cccc(F)c2)C1 [I-385] | > 200 µM |
| CCN(c1cc(N2CCOCC2)ncn1)[C@@H]1CCCN(c2cccc(F)c2)C1 [I-386] | > 200 µM |
| Fc1cccc(N2CCC[C@@H](N(Cc3ccccc3)c3cc(N4CCOCC4)ncn3)C2)c1 [I-387] | > 200 µM |
| c1ccc2c(N3CCC[C@@H](Nc4cc(N5CCOCC5)ncn4)C3)cccc2c1 [I-388] | > 200 µM |
| c1ccc2cc(N3CCC[C@@H](Nc4cc(N5CCOCC5)ncn4)C3)ccc2c1 [I-389] | > 200 µM |

The remaining lines, values ahead:

| Kd | SMILES |
| --- | --- |
| 10 to 100 µM | NC(=O)C[C@H](NC(=O)c1cn[nH]c1-c1ccccc1C(N)=O)c1cccc(Cl)c1 [I-349] |
| 10 to 100 µM | NC(=O)C[C@H](NC(=O)c1cn[nH]c1-c1cccc(C(N)=O)c1)c1cccc(Cl)c1 [I-350] |
| 10 to 100 µM | NC(=O)C[C@H](NC(=O)c1cn[nH]c1-c1ccc(C(N)=O)cc1)c1cccc(Cl)c1 [I-351] |
| > 200 µM | NC(=O)C[C@H](NC(=O)c1cn[nH]c1-c1ccccc1F)c1ccccc1C(N)=O [I-352] |
| > 200 µM | NC(=O)C[C@H](NC(=O)c1cn[nH]c1-c1ccccc1F)c1cccc(C(N)=O)c1 [I-353] |
| > 200 µM | NC(=O)C[C@H](NC(=O)c1cn[nH]c1-c1ccccc1F)c1ccc(C(N)=O)cc1 [I-354] |
| 10 to 100 µM | NC(=O)C[C@H](NC(=O)c1c[nH]nc1-c1cccc2nc[nH]c12)c1cccc(Cl)c1 [I-355] |
| 10 to 100 µM | NC(=O)C[C@H](NC(=O)c1c[nH]nc1-c1ccc2[nH]cnc2c1)c1cccc(Cl)c1 [I-356] |
| 10 to 100 µM | c1ccc2c(N3CCC[C@@H](Nc4cncc(N5CCOCC5)c4)C3)nccc2c1 [I-364] |
| < 10 µM | c1ccc2c(N3CCC[C@@H](Nc4cncc(N5CCOCC5)c4)C3)cncc2c1 [I-365] |
| < 10 µM | c1cc2ccc(N3CCC[C@@H](Nc4cncc(N5CCOCC5)c4)C3)cc2cn1 [I-366] |
